Molecular target: T1, zfT1R2b/zfT1R3 (Danio rerio, UniProt A0A8M1NDZ5+Q2MHK9)
T1 sequence (A0A8M1NDZ5 18-823): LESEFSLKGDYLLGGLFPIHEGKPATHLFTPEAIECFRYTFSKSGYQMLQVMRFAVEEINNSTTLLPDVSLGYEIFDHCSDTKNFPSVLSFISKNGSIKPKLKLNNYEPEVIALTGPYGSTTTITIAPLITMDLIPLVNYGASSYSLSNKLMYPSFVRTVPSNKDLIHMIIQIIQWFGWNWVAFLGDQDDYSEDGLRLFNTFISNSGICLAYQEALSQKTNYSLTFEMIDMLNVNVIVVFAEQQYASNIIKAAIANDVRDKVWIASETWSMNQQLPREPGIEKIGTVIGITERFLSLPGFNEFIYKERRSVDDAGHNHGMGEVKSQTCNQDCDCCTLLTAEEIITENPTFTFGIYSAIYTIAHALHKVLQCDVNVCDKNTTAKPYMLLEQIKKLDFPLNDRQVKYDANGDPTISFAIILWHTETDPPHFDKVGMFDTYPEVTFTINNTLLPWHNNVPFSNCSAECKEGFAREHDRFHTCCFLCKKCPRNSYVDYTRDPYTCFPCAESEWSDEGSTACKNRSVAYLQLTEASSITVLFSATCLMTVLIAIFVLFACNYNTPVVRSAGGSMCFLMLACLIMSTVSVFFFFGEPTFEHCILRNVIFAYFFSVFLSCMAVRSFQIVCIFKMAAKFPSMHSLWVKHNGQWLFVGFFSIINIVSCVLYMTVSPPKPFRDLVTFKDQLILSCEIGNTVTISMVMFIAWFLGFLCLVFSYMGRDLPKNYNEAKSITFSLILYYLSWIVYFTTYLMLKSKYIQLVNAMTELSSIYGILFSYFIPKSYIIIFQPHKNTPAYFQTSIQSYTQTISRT
T1 sequence (Q2MHK9 25-850): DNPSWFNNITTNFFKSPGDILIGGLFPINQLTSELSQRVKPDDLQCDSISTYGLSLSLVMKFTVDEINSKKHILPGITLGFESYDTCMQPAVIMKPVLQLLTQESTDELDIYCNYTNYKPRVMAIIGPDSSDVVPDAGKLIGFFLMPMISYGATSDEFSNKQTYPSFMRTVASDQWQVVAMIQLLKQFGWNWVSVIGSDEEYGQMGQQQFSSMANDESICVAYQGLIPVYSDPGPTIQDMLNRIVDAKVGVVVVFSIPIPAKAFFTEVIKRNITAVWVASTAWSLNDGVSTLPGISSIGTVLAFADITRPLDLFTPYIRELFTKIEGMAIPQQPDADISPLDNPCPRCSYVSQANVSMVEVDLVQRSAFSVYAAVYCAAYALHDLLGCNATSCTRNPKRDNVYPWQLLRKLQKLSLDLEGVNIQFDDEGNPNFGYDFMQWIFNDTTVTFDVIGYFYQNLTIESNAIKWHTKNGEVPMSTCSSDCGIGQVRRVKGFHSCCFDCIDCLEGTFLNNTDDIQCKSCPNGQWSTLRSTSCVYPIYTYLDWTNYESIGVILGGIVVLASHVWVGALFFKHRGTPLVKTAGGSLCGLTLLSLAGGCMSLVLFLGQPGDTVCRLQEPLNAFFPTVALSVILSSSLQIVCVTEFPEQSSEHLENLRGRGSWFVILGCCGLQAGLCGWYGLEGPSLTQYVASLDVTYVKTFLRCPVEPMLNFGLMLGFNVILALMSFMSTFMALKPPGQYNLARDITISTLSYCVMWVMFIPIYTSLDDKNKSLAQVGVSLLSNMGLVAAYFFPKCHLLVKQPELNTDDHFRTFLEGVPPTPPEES
Experiment: Ca2+ mobilization dose-response assay, stable cells expressing zfT1R2b/zfT1R3 with G16gust44
Protocol: The buffers with lower Cl^− were prepared by progressively replacing NaCl, KCl, CaCl2 and MgCl2 in the buffer with gluconate equivalents[20]. The pH was adjusted to 7.4 with NaOH. Ligands were diluted with the assay buffers at the desired concentrations.
Measurements of the responses of the cells by cell-based assay based on the intracellular Ca^2+ mobilization were carried out as described previously with some modifications[20],[34],[46],[47]. […] The cells were seeded in 96-well plates (clear-bottomed CellBIND surface plate, Corning, Glendale, AZ, USA) coated with ε-poly-L-lysine (Cosmo Bio, Tokyo, Japan) at approximately 70,000 cells per well. After 20 h, the medium was removed and replaced with high Cl^− buffer. After 3 h 30 min incubation at 27 °C, cells were loaded with 5 µM calcium-indicator dye Fluo-8 AM (AAT Bioquest, Sunnyvale, CA, USA) diluted in high Cl^− buffer. After incubation for 30 min at 27 °C, the cells were washed with buffers containing appropriate concentrations of Cl^−. The cellular assay was initiated after 3–5 min of resting and was completed within 5 min. The measurements were made using FlexStation 3 (Molecular Devices, Sunnyvale, CA, USA) at 27 °C. Fluorescence changes (i.e., excitation at 485 nm and emission at 525 nm with a cutoff at 515 nm) were monitored at 2 s intervals. A 100-µL aliquot of assay buffer supplemented with 2 × ligands was added at 20 s, and scanning was continued for an additional 40 s. The response of each well was determined as ∆RFU (delta relative fluorescent units), which was calculated as (maximum fluorescent value)—(minimum fluorescent value). […] Such normalized data from more than three independent experiments are reported as the mean ± standard error of the mean (SEM). Dose‒response fitting curves were calculated by Prism 9 (GraphPad Software, San Diego, CA) using nonlinear regression (log(agonist) vs. response—variable slope), based on the integrated data from the several independent experiments.

Row | Structure (SMILES) | [Cl-]o range in which a decrease in sensitivity was observed (agonist L-Ala, buffers with 10-141.4 mM Cl-) [mM] | EC50 in 10 mM Cl- buffer relative to high Cl- buffer (10 mM vs 141.4 mM Cl- buffer) | EC50 (EC50, [Cl-]o=10 mM, unit inferred) [µM]
1 | [Cl-].[Na+] [NaCl] | 40 to 141.4 |  | 
2 | C[C@H](N)C(=O)O [L-Ala, L-alanine] |  | approximately half | 1290

From article PMC10539361, “Allosteric modulation of the fish taste receptor type 1 (T1R) family by the extracellular chloride ion” (Scientific Reports, 2023)
